Measurements as given in patent US20030139443A1, “Use of tachykinin antagonists, including NK-1 receptor antagonists, to modify unwanted behavior in dogs, cats and horses” (priority 2001, published 2003).

Columns and labels:
Assay type in all cases: in vivo, dog
[1] = tested on: dogs, anxiety associated with separation and with novel sight and sound stimuli; experiment: Example 2: canine anxiety model, separation phase and stimulation phase, various dosages of compound of Formula 1
Procedure: The present invention also concerns a method for testing compounds for anxiolytic effect in dogs. The model is designed to induce separation anxiety as well as anxiety due to novel visual and auditory stimuli. To determine whether a test compound has an anxiolytic effect in dogs, separation anxiety and anxiety associated with novel sight and sound stimuli are measured both with and without administration of the test compound. In one preferred embodiment, observations are made on five different anxiety behaviors during a 15-minute separation phase and a 15-minute stimulation phase. These anxiety behaviors are vocalization (barking, crying, growling); hyperactivity (jumping, pacing, circling); destruction (chewing, pawing, digging); salivation; and tremor. […] In addition to direct observation, dogs are videotaped during testing for documentation of behaviors. In one preferred embodiment, a dog is removed from a group pen and placed in an isolation cage. A tester, positioned behind a screen out of view, starts a timer for 15 minutes and a video recorder. […] At the end of the separation phase, the timer is re-set to 15 minutes and a child-size doll mounted on a remote controlled car is driven around the pen continuously. After 10 minutes, the doll and car are driven behind the screen and a child's fazer gun with a variety of sounds is continually activated for 5 minutes. At the end of the stimulation phase, the accumulated time for each behavior is recorded and the video recorder stopped. The dog is removed from the isolation cage and returned to the group pen. Preferably, a complete cross-over study design with test compound and placebo is used. Each treatment period is 21 days in length. Study “day 0” is used to designate the initial day of dosing. Anxiety testing is conducted on study days 6 and 20 within each period. Animals are allocated to treatment group, sequence, pen and evaluation order using a randomization plan. Dogs remain within the same sequence during progression of the cross-over phases of the study so that all possible treatment orders are evenly represented. Preferably, “day 0” is staggered such that 3-6 dogs are evaluated per day. Treatment administration is adjusted on testing days such that each animal is tested at the predicted Cmax for the test compound. Anxiety testing is preferably conducted between 11 AM and 4 PM to account for time-of-day variations in behavior. Animals are fed at the conclusion of testing. A three-week washout is observed between periods. Various dosages of the compound of Formula 1 were tested to determine an optimal dose. Anxiety associated with separation and with novel sight and sound stimuli was measured. Observations are made on two different anxiety behaviors during a 15-minute separation phase and a 15-minute stimulation phase. These behaviors are vocalization (barking, crying, growling) and hyperactivity (jumping, pacing, circling). […] In addition to direct observation, dogs are videotaped during testing for documentation of behaviors. The dog is removed from a group pen and placed in an isolation cage in an adjacent room. The tester, positioned behind a screen out of view, starts a timer for 15 minutes and the video recorder. […] At the end of the separation phase, the timer is re-set to 15 minutes and a child-size doll mounted on a remote controlled car is driven around the pen continuously. After 10 minutes, the doll and car are driven behind the screen and a child's fazer gun with a variety of sounds is continually activated for 5 minutes. At the end of the stimulation phase, the accumulated time for each behavior is recorded and the video recorder stopped. The dog is removed from the isolation cage and returned to the group pen.

[2] = tested on: Adult dogs with spontaneous anxiety to isolation and/or unfamiliar humans; experiment: Example 1: anxiety behaviors of dogs during 15-minute separation phase, compound of Formula 1 vs. placebo, double-blind crossover; conditions: for Hyperactivity Mean, Geometric Mean Time / Vocalization Mean, Geometric Mean Time: 0.1 mg/kg SC once daily, Separation Phase, vs. placebo
Procedure: To evaluate the anxiolytic effects of a compound of Formula 1 vs. placebo after seven and twenty-one days of parenteral dosing at 0.1 mg/kg SID, the following procedure was followed.
Adult dogs with spontaneous anxiety to isolation and/or unfamiliar humans were treated for twenty-one consecutive days with the compound of Formula 1 or a placebo control. Dogs were tested after seven and twenty-one days of dosing. “Day 0” was used to identify the initial day of dosing. The study was conducted using a double-blind crossover design. Treatment periods were 21 days in duration, with a 28 day washout period between treatments. Dogs were randomly assigned to treatment groups such that those receiving compound at the first replicate received placebo on the second replicate. The placebo treatments served as the negative control.
All study participants were blinded to treatment groups. The compound of Formula 1 was administered at a dose of 0.1 mg/kg. The volume of vehicle control used for the placebo treatments was equivalent to the calculated volume of test compound that would have been administered had the animal been receiving drug. All test articles were administered by subcutaneous injection once daily.
On the day of testing, each dog was placed in a cage in an isolated room for 15 minutes. A hidden observer timed any anxious behavior. Animals were tested on dosing day 6 and day 20, starting 2 hours after the dose of the day.
Abnormal anxiety behaviors were studied. Observations were made on two different anxiety behaviors during a 15-minute separation phase. These behaviors are vocalization (barking, crying, growling) and hyperactivity (jumping, pacing, circling).

[3] = tested on: Adult dogs, separation behavior; experiment: Example 3: behavior scores in dogs after ten consecutive oral doses of compound of Formula 2 vs. placebo, cross-over; conditions: 5 mg/kg oral BID, 10 doses
Procedure: Adult dogs received ten consecutive oral doses of a compound of Formula 2 at 5 mg/kg BID or placebo in a cross-over design and effects on behavior were determined beginning one-hour post-dose.
Appropriate amounts of the compound of Formula 2 were weighed and placed in capsules. Capsules were back-filled with dextrose.
Capsules were administered by placing them in the back of the throat and allowing the dogs to swallow. On the day of behavior testing, dogs were fasting at dosing.
Dogs were divided equally into two treatment groups. Treatment Group 1 received 10 consecutive oral doses of the compound of Formula 2 BID at 5 mg/kg and Treatment Group 2 received 10 consecutive oral dextrose placebos BID. At the conclusion of the first half of the study, the protocol was repeated and dogs in Treatment Group 1 received 10 consecutive oral dextrose placebos BID and dogs in Treatment Group 2 received 10 consecutive oral doses of the compound of Formula 2 BID at 5 mg/kg.
Dogs began compound dosing at 1830 and continued for 10 consecutive BID doses. The final dose (dose #10) occurred the morning of testing, one hour prior to the start. Dogs were tested in three 15-minute testing phases in which behavior was scored every 5 minutes. Dogs were videotaped during the testing period.

[4] = 0.03 mg/kg, Separation, Day 6, vs. Day −1
[5] = 0.03 mg/kg, Separation, Day 20, vs. Day −1
[6] = 0.03 mg/kg, Stimulation, Day 6, vs. Day −1
[7] = 0.03 mg/kg, Stimulation, Day 20, vs. Day −1
[8] = 0.1 mg/kg, Separation Phase, Day 6, vs. placebo
[9] = 0.1 mg/kg, Separation Phase, Day 20, vs. placebo
[10] = 0.1 mg/kg, Separation, Day 6, vs. Day −1
[11] = 0.1 mg/kg, Separation, Day 20, vs. Day −1
[12] = 0.1 mg/kg, Stimulation Phase, Day 6, vs. placebo
[13] = 0.1 mg/kg, Stimulation Phase, Day 20, vs. placebo
[14] = 0.1 mg/kg, Stimulation, Day 6, vs. Day −1
[15] = 0.1 mg/kg, Stimulation, Day 20, vs. Day −1
[16] = 0.3 mg/kg, Separation, Day 6, vs. Day −1
[17] = 0.3 mg/kg, Separation, Day 20, vs. Day −1
[18] = 0.3 mg/kg, Stimulation, Day 6, vs. Day −1
[19] = 0.3 mg/kg, Stimulation, Day 20, vs. Day −1
[20] = 1 mg/kg, Separation Phase, Day 6, vs. placebo
[21] = 1 mg/kg, Separation Phase, Day 20, vs. placebo
[22] = 1 mg/kg, Stimulation Phase, Day 6, vs. placebo
[23] = 1 mg/kg, Stimulation Phase, Day 20, vs. placebo

Compound: COc1ccc(C(C)(C)C)cc1CN[C@H]1C2CCN(CC2)[C@H]1C(c1ccccc1)c1ccccc1 [Compound of Formula 1, (2S.3S) (2-Benzhydryl-1-aza-bicyclo[2.2.2]oct-3-yl)-(5-tert-butyl-2-methoxy-benzyl)-amine]
- Hyperactivity Mean, Geometric Mean Time [1, 4]: 19.4 s
- Vocalization Mean, Geometric Mean Time [1, 4]: 10.6 s
- Hyperactivity Mean, Geometric Mean Time [1, 5]: 20.1 s
- Vocalization Mean, Geometric Mean Time [1, 5]: 12.1 s
- Hyperactivity Mean, Geometric Mean Time [1, 6]: 38.6 s
- Vocalization Mean, Geometric Mean Time [1, 6]: 24.5 s
- Hyperactivity Mean, Geometric Mean Time [1, 7]: 28.2 s
- Vocalization Mean, Geometric Mean Time [1, 7]: 35.6 s
- Hyperactivity Mean, Geometric Mean Time [1, 8]: 24.1 s
- Vocalization Mean, Geometric Mean Time [1, 8]: 29.0 s
- Hyperactivity Mean, Geometric Mean Time [1, 9]: 19.1 s
- Vocalization Mean, Geometric Mean Time [1, 9]: 25.5 s
- Hyperactivity Mean, Geometric Mean Time [1, 10]: 24.7 s
- Vocalization Mean, Geometric Mean Time [1, 10]: 15.5 s
- Hyperactivity Mean, Geometric Mean Time [1, 11]: 14.8 s
- Vocalization Mean, Geometric Mean Time [1, 11]: 9.1 s
- Hyperactivity Mean, Geometric Mean Time [1, 12]: 46.7 s
- Vocalization Mean, Geometric Mean Time [1, 12]: 35.3 s
- Hyperactivity Mean, Geometric Mean Time [1, 13]: 51.2 s
- Vocalization Mean, Geometric Mean Time [1, 13]: 26.4 s
- Hyperactivity Mean, Geometric Mean Time [1, 14]: 48.8 s
- Vocalization Mean, Geometric Mean Time [1, 14]: 36.8 s
- Hyperactivity Mean, Geometric Mean Time [1, 15]: 28.4 s
- Vocalization Mean, Geometric Mean Time [1, 15]: 24.7 s
- Hyperactivity Mean, Geometric Mean Time [1, 16]: 49.7 s
- Vocalization Mean, Geometric Mean Time [1, 16]: 20.9 s
- Hyperactivity Mean, Geometric Mean Time [1, 17]: 39.1 s
- Vocalization Mean, Geometric Mean Time [1, 17]: 18.2 s
- Hyperactivity Mean, Geometric Mean Time [1, 18]: 43.1 s
- Vocalization Mean, Geometric Mean Time [1, 18]: 15.9 s
- Hyperactivity Mean, Geometric Mean Time [1, 19]: 41.9 s
- Vocalization Mean, Geometric Mean Time [1, 19]: 19.2 s
- Hyperactivity Mean, Geometric Mean Time [1, 20]: 23.3 s
- Vocalization Mean, Geometric Mean Time [1, 20]: 5.8 s
- Hyperactivity Mean, Geometric Mean Time [1, 21]: 16.8 s
- Vocalization Mean, Geometric Mean Time [1, 21]: 6.9 s
- Hyperactivity Mean, Geometric Mean Time [1, 22]: 22.7 s
- Vocalization Mean, Geometric Mean Time [1, 22]: 6.5 s
- Hyperactivity Mean, Geometric Mean Time [1, 23]: 36.0 s
- Vocalization Mean, Geometric Mean Time [1, 23]: 7.4 s
- most efficacious dosage in dogs among those dosages tested ([1]; SC, dosages tested 0.03, 0.1, 0.3, 1 mg/kg): 0.1 mg/kg
- effectiveness at treating vocalization and hyperactivity resulting from separation ([2]; 0.1 mg/kg SC, compared with placebo): more effective than placebo

Compound: COc1ccc(OC(F)(F)F)cc1CN[C@H]1CCCN[C@H]1c1ccccc1 [Compound of Formula 2]
- Separation Hyperactivity 0-15 min, behavior score as estimated duration of time ([3]; Dog ID 70954): 2 s
- Separation Vocalization 0-15 min, behavior score as estimated duration of time ([3]; Dog ID 70954): 0 s
- Separation Hyperactivity 0-15 min, behavior score as estimated duration of time ([3]; Dog ID 215155): 2 s
- Separation Vocalization 0-15 min, behavior score as estimated duration of time ([3]; Dog ID 215155): 12 s
- Separation Hyperactivity 0-15 min, behavior score as estimated duration of time ([3]; Dog ID 219622): 30 s
- Separation Vocalization 0-15 min, behavior score as estimated duration of time ([3]; Dog ID 219622): 22 s
- Separation Hyperactivity 0-15 min, behavior score as estimated duration of time ([3]; Dog ID 227641): 2 s
- Separation Vocalization 0-15 min, behavior score as estimated duration of time ([3]; Dog ID 227641): 2 s
- Separation Hyperactivity 0-15 min, behavior score as estimated duration of time ([3]; Dog ID 234923): 2 s
- Separation Vocalization 0-15 min, behavior score as estimated duration of time ([3]; Dog ID 234923): 0 s
- Separation Hyperactivity 0-15 min, behavior score as estimated duration of time ([3]; Dog ID 240893): 6 s
- Separation Vocalization 0-15 min, behavior score as estimated duration of time ([3]; Dog ID 240893): 0 s
- Separation Hyperactivity 0-15 min, behavior score as estimated duration of time ([3]; Dog ID 2943450): 18 s
- Separation Vocalization 0-15 min, behavior score as estimated duration of time ([3]; Dog ID 2943450): 30 s
- Separation Hyperactivity 0-15 min, behavior score as estimated duration of time ([3]; Dog ID HIHMFU): 12 s
- Separation Vocalization 0-15 min, behavior score as estimated duration of time ([3]; Dog ID HIHMFU): 0 s
- Separation Hyperactivity 0-15 min, behavior score as estimated duration of time ([3]; Mean of 8 dogs): 9.25 s
- Separation Vocalization 0-15 min, behavior score as estimated duration of time ([3]; Mean of 8 dogs): 8.25 s
- Hyperactivity Mean, Geometric Mean Time ([2]; Day 6): 24.1 s
- Vocalization Mean, Geometric Mean Time ([2]; Day 6): 29.0 s
- Hyperactivity Mean, Geometric Mean Time ([2]; Day 20): 19.1 s
- Vocalization Mean, Geometric Mean Time ([2]; Day 20): 25.5 s
